In patent publication US20040063742A1 (priority 2001, published 2004):

Assays:
[1] = target: T1, dopamine transporter (Rattus norvegicus, UniProt P23977); experiment: Inhibition of in vitro [3H]WIN 35428 binding to the dopamine transporter in rat striatal synaptosomes; conditions: [3H]WIN 35428 1 nM
T1 construct: Striata from male Wistar rats (150-200 g) are homogenized; from tissue; host or cells: rat striatum (male Wistar), membrane pellet
Description: Inhibition of In Vitro [^3H]WIN 35428 Binding to the Dopamine Transporter in Rat Striatal Synaptosomes
In this method the ability of test compounds to inhibit the binding of WIN 35428 to the dopamine transporter in vitro is assessed.
Tissue preparation: Striata from male Wistar rats (150-200 g) are homogenized for 5-10 sec in 10 ml NaH2PO4 (50 mM, pH 7.4) using an Ultra-Turrax homogenizer. The suspension is centrifuged at 27,000×g for 15 min. The supernatant is discarded and the pellet is resuspended in phosphate buffer (1000 ml per g of original tissue) and used for binding assays.
Binding assays: Aliquots of 0.5 ml tissue suspension are added to 0.025 ml of test solution and 0.025 ml of [^3H]WIN 35428 (1 nM, final concentration), mixed and incubated for 60 min at 2° C. Non-specific binding is determined using cocaine (30 μM, final concentration).
After incubation 5 ml of ice-cold buffer is added to the samples and poured directly onto Whatman GF/C glass fiber filters (for the [^3H]GBR 12935 assay the filters are presoaked in 0.1% PEI for at least 20 min) under suction and immediately washed with 5 ml ice-cold buffer. The amount of radioactivity on the filters is determined by conventional liquid scintillation counting using a Tri-carb liquid scintillation analyzer (model 1600CA; Packard, USA). […]

[2] = system: dopaminergic neurons in dissociated cultures from rat E14 ventral mesencephali; experiment: Survival of embryonic rat dopaminergic neurons; format: cell-based; conditions: TH-immunoreactive cells, 7 days in culture
Description: Survival of Embryonic Rat Dopaminergic Neurons
In this experiment the effect of a test compound on the survival of dopaminergic neurons in dissociated cultures established from rat E14 ventral mesencephali (VM) is assessed.
Embryonic rat brains (Wistar; E14) were isolated under sterile conditions placed in chilled Gey's balanced salt solution (GIBCO) with glucose (6.5 mg/ml).
The ventral mesencephali were dissected out, cut into small tissue pieces, placed in Neurobasal medium with B27 supplement and gently pressed through a 80 μm Nitex filter. The cells were counted using a hemocytometer and plated in a 6 well multi-dish at a density of approximately 2.0×10^6 cells/well. Culture dishes were pre-coated with poly-D-lysine.
After 1 hour, the medium was removed and fresh medium added (1.5 ml/well). […] Untreated cultures served as controls. The medium was changed every other day and antimitotics and antibiotics were not used at any stage.
After 7 days in culture, cultures were then immunostained for tyrosine hydroxylase (TH). Briefly, the cells were washed in 0.05M tris-buffered saline (TBS, pH 7.4) containing 1% Triton X-100 for 3×15 minutes and incubated with 10% foetal bovine serum (FBS, Life Technologies) in TBS for 30 minutes. The cells were then incubated for 24 hours at 4° C. with monoclonal mouse anti-TH antibody (Boehringer Mannheim) diluted 1:600 in TBS with 10% FBS. After rinsing in TBS with 1% Triton X-100 for 3×15 minutes, cells were incubated for 60 minutes with biotinylated anti-mouse IgG antibody (Amersham) diluted 1:200 in TBS with 10% FBS. The cells were then washed in TBS with 1% Triton X-100 (3×15 minutes) and incubated for 60 minutes with streptavidine-peroxidase (Dako) diluted 1:200 in TBS with 10% FBS. After washing in TBS (3×15 minutes), bound antibody was visualised by treatment with 0.05% 3,3-diaminobenzidine (Sigma) in TBS containing 0.01% H2O2. TH-immunoreactive (ir) cells were counted manually.

[3] = target: T2, 3H-dopamine uptake in striatal synaptosomes (Rattus norvegicus, UniProt P23977); experiment: In vitro inhibition of 3H-dopamine (3H-DA) uptake in striatal synaptosomes; format: biochemical
T2 construct: Corpi striati from male Wistar rats (150-200 g) are homogenised; from tissue; host or cells: rat corpus striatum (male Wistar), P2 synaptosomal pellet
T2 sequence (P23977 whole entry): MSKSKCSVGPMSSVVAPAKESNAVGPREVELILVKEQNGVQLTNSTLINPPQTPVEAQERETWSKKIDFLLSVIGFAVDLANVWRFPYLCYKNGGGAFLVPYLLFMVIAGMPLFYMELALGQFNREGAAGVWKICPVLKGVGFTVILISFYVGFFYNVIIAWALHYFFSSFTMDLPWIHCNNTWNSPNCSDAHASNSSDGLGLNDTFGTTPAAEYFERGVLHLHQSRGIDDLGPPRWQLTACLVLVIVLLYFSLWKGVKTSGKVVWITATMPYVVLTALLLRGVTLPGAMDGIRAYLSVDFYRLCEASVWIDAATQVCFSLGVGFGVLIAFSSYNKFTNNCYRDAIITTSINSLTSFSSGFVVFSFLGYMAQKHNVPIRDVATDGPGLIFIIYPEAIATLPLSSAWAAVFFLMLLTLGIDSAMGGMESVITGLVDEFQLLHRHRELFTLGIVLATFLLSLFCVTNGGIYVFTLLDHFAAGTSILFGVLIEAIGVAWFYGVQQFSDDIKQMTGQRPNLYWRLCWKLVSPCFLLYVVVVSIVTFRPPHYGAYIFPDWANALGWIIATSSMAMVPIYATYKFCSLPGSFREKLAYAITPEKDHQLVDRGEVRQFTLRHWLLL
Description: In vitro Inhibiti n of ^3H-dopamin (3H-DA) Uptake in Striatal Synaptosom s
In this test, the ability of a compound enhancing the dopamine activity (below: the test compound) to inhibit the uptake of ^3H-dopamine in striatal synaptosomes is assessed.
Tissue preparations: Preparations are performed at 0-4° C. unless otherwise indicated. Corpi striati from male Wistar rats (150-200 g) are homogenised for 5-10 sec in 100 volumes of ice-cold 0.32M sucrose containing 1 mM pargyline using an Ultra-Turrax homogenizer. Monoamine oxidase activity will be inhibited in the presence of pargyline. The homogenate is centrifuged at 1000×g for 10 min. The resulting supernatant is then centrifuged at 27,000×g for 50 min and the supernatant is discarded. […]
Assay: Aliquots of 4.0 ml tissue suspension are added to 100 μl of test solution and 100 μl of ^3H-DA (1 nM, final concentration), mixed and incubated for 25 min at 37° C. Non-specific uptake is determined using benztropine (10 μM, final concentration). […] The amount of radioactivity on the filters is determined by conventional liquid scintillation counting. Specific uptake is calculated as the difference between total uptake and non-specific uptake. […]

T1 sequence (P23977 whole entry): as above

## O=C1Nc2c(cc(-c3ccc(Cl)cc3)c3c2CCCC3)C1=NO [compound a, 5-(4-Chlorophenyl)-6,7,8,9-tetrahydro-1-H-pyrrolo[3.2-h]naphthalene-2,3-dione-3-oxime]
[1]
  IC50: 140 nM
[2]; 0.3 μM compound a
  Inhibition of cell loss: 74%
[2]; 1.0 μM compound a
  Inhibition of cell loss: 62%
[2]; 3.0 μM compound a
  Inhibition of cell loss: 17%
[3]
  IC50: 34 nM
